According to PMC10838953:

Tests used:
WNK4 = WNK4 (Homo sapiens, UniProt Q96J92); experiment: biochemical; details: read-out: %Ctrl @ 2000nM
PKAC-beta = PKAC-beta (Homo sapiens, UniProt P22694); experiment: biochemical; details: read-out: %Ctrl @ 2000nM
[1] = system: 786-O, A549, MDA-MB-231, OVCAR-3, U373 MG
MARK3 = MARK3 (Homo sapiens, UniProt P27448); experiment: biochemical; details: read-out: %Ctrl @ 2000nM
[2] = target: RSK3(Kin.Dom.1-N-terminal) (Homo sapiens, UniProt Q15349); experiment: biochemical; details: read-out: %Ctrl @ 2000nM
p38-beta = p38-beta (Homo sapiens, UniProt Q15759); experiment: biochemical; details: read-out: %Ctrl @ 2000nM
BRSK1 = BRSK1 (Homo sapiens, UniProt Q8TDC3); experiment: biochemical; details: read-out: %Ctrl @ 2000nM
survivin = details: 786-O cells; 2.5-15 μM; 48 h
ROCK1 = ROCK1 (Homo sapiens, UniProt Q13464); experiment: biochemical; details: read-out: %Ctrl @ 2000nM
[3] = target: RSK2(Kin.Dom.1-N-terminal) (Homo sapiens, UniProt P51812); experiment: biochemical; details: read-out: %Ctrl @ 2000nM
RET(V804M) = RET(V804M) (Homo sapiens, UniProt P07949, V804M); experiment: biochemical; details: read-out: %Ctrl @ 2000nM
[4] = target: ABL1(E255K)-phosphorylated (Homo sapiens, UniProt P00519, E255K); experiment: biochemical; details: read-out: %Ctrl @ 2000nM
AXL = AXL (Homo sapiens, UniProt P30530); experiment: biochemical; details: read-out: %Ctrl @ 2000nM
[5] = target: JAK2(JH1domain-catalytic) (Homo sapiens, UniProt O60674); experiment: biochemical; details: read-out: %Ctrl @ 2000nM
JAK2(JH1domain-catalytic), sequence (O60674 840-1132 limits assumed): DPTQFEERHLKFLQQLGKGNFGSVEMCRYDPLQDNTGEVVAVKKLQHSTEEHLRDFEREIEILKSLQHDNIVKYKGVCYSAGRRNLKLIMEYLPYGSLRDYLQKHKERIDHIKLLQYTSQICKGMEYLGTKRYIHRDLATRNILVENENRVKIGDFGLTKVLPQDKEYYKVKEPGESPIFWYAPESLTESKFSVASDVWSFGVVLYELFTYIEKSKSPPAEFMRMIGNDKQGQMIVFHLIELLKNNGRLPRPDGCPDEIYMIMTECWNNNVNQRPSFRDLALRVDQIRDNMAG

TEC = TEC (Homo sapiens, UniProt P42680); experiment: biochemical; details: read-out: %Ctrl @ 2000nM
RAF1 = RAF1 (Homo sapiens, UniProt P04049); experiment: biochemical; details: read-out: %Ctrl @ 2000nM
HPK1 = HPK1 (Homo sapiens, UniProt Q92918); experiment: biochemical; details: read-out: %Ctrl @ 2000nM
MAP3K1 = MAP3K1 (Homo sapiens, UniProt Q13233); experiment: biochemical; details: read-out: %Ctrl @ 2000nM
EGFR(L861Q) = EGFR(L861Q) (Homo sapiens, UniProt P00533, L861Q); experiment: biochemical; details: read-out: %Ctrl @ 2000nM
PIK3CA(H1047Y) = PIK3CA(H1047Y) (Homo sapiens, UniProt P42336, H1047Y); experiment: biochemical; details: read-out: %Ctrl @ 2000nM
PIK3CA(H1047Y), sequence (P42336 whole entry H1047Y): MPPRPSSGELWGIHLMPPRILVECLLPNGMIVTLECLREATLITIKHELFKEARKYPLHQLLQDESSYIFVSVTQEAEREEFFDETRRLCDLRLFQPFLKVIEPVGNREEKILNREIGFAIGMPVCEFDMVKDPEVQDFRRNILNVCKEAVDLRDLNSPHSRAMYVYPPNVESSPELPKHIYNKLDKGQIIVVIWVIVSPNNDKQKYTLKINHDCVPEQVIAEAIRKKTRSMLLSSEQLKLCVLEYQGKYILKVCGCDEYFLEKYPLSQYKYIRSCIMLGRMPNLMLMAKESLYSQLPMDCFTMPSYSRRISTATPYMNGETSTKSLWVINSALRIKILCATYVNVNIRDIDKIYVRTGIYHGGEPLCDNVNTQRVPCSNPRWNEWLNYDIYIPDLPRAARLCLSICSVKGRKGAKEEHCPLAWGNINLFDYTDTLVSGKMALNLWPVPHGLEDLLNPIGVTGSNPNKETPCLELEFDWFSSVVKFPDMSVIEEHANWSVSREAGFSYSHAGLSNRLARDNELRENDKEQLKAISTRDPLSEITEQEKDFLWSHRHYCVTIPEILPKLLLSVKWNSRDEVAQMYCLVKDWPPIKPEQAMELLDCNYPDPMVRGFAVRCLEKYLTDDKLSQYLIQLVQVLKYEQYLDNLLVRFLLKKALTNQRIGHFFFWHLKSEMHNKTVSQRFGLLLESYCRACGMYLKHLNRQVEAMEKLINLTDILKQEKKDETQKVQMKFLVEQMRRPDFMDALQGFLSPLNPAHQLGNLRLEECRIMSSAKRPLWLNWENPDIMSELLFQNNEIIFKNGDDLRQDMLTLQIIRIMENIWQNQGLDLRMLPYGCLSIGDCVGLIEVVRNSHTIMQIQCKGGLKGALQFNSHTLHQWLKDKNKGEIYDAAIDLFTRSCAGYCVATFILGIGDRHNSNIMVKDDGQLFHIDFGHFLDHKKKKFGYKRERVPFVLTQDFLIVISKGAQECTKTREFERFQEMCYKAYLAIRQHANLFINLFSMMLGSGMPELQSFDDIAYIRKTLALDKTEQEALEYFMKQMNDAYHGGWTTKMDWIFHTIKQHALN

MST3 = MST3 (Homo sapiens, UniProt Q9Y6E0); experiment: biochemical; details: read-out: %Ctrl @ 2000nM
MST3, sequence (Q9Y6E0 whole entry): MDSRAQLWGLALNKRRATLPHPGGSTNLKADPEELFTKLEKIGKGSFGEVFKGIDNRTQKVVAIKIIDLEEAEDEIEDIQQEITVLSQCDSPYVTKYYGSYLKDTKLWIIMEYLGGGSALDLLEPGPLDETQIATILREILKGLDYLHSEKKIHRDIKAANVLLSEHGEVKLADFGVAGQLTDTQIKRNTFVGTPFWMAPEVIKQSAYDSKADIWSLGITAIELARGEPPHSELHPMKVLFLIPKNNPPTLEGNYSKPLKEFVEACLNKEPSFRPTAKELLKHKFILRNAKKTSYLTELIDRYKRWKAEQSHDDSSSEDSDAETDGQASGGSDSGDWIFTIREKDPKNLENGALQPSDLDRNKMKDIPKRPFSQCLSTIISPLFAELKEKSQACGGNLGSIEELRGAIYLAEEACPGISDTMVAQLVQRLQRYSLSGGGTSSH

ADCK4 = ADCK4 (Homo sapiens, UniProt Q96D53); experiment: biochemical; details: read-out: %Ctrl @ 2000nM
TYRO3 = TYRO3 (Homo sapiens, UniProt Q06418); experiment: biochemical; details: read-out: %Ctrl @ 2000nM
CDC2L5 = CDC2L5 (Homo sapiens, UniProt Q14004); experiment: biochemical; details: read-out: %Ctrl @ 2000nM
[6] = target: ABL1(H396P)-nonphosphorylated (Homo sapiens, UniProt P00519, H396P); experiment: biochemical; details: read-out: %Ctrl @ 2000nM
TNIK = TNIK (Homo sapiens, UniProt Q9UKE5); experiment: biochemical; details: read-out: %Ctrl @ 2000nM
TNIK, sequence (Q9UKE5 whole entry): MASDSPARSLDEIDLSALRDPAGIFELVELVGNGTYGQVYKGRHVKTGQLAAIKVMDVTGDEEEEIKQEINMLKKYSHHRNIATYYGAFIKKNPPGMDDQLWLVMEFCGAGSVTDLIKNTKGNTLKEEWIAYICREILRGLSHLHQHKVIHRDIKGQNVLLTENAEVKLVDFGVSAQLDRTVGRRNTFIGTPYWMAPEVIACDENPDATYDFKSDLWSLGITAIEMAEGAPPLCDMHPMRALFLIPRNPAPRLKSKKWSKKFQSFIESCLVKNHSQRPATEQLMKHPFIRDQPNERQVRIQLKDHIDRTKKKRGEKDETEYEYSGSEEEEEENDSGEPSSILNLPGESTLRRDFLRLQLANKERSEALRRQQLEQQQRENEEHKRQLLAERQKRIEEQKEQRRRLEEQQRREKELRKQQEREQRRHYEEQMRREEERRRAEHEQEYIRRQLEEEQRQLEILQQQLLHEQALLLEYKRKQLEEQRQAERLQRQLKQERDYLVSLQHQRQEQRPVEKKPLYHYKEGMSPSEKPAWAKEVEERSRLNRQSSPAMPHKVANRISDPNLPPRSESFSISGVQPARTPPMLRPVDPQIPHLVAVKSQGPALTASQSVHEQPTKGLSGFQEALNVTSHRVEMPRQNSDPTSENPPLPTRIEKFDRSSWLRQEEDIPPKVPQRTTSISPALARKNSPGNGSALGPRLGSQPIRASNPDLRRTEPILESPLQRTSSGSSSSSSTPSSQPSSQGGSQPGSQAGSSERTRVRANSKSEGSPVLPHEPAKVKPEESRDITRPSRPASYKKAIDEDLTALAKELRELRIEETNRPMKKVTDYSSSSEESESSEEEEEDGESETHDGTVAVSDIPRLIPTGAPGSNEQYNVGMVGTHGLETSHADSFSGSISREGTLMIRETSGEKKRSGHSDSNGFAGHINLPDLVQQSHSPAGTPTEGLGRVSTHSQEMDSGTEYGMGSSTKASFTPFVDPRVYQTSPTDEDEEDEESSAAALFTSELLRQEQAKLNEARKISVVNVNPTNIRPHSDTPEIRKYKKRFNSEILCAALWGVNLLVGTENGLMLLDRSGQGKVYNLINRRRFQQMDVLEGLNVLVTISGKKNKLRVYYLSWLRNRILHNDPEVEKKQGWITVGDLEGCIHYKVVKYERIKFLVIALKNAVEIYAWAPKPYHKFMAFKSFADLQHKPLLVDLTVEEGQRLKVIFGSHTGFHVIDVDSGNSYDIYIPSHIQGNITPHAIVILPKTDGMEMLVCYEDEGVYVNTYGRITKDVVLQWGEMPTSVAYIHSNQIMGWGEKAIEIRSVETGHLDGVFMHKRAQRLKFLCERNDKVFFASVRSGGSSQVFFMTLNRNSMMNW

HIPK1 = HIPK1 (Homo sapiens, UniProt Q86Z02); experiment: biochemical; details: read-out: %Ctrl @ 2000nM
HIPK1, sequence (Q86Z02 whole entry): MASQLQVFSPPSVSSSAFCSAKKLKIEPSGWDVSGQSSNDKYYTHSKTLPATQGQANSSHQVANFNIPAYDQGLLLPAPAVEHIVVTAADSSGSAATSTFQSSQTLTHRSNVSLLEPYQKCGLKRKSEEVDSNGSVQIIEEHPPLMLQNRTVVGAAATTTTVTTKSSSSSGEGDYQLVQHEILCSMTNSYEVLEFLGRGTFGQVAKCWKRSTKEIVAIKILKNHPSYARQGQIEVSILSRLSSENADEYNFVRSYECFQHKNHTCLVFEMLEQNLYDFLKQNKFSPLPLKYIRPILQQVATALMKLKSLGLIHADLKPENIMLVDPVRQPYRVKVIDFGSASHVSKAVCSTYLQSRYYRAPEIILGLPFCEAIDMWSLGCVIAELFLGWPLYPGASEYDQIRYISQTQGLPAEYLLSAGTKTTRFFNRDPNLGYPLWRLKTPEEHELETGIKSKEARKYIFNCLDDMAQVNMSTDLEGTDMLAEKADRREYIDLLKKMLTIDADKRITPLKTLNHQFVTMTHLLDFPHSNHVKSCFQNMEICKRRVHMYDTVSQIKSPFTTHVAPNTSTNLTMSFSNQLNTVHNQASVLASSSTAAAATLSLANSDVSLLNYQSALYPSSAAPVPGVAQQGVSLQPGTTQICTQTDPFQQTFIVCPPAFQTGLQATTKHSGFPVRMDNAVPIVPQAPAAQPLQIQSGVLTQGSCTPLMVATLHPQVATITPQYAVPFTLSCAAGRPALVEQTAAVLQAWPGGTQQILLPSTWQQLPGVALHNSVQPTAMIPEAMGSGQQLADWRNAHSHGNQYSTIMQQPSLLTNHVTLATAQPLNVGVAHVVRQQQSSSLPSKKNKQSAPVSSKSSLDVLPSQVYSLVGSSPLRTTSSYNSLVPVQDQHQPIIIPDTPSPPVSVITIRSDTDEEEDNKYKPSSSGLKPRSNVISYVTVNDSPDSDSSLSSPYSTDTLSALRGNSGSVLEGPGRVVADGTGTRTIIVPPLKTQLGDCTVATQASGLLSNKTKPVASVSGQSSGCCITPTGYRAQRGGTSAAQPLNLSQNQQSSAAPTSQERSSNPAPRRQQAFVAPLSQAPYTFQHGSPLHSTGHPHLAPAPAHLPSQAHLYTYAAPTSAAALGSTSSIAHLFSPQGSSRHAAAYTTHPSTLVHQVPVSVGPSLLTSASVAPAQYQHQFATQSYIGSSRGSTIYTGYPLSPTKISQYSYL

ERK2 = ERK2 (Homo sapiens, UniProt P28482); experiment: biochemical; details: read-out: %Ctrl @ 2000nM
SIK = SIK (Homo sapiens, UniProt P57059); experiment: biochemical; details: read-out: %Ctrl @ 2000nM
[7] = target: RPS6KA5(Kin.Dom.1-N-terminal) (Homo sapiens, UniProt O75582); experiment: biochemical; details: read-out: %Ctrl @ 2000nM
AKT (S129) = details: 786-O cells; 48 h
CDK9 = CDK9 (Homo sapiens, UniProt P50750); experiment: biochemical; details: read-out: %Ctrl @ 2000nM
CIT = CIT (Homo sapiens, UniProt O14578); experiment: biochemical; details: read-out: %Ctrl @ 2000nM
CSNK1E = CSNK1E (Homo sapiens, UniProt P49674); experiment: biochemical; details: read-out: %Ctrl @ 2000nM
MRCKB = MRCKB (Homo sapiens, UniProt Q9Y5S2); experiment: biochemical; details: read-out: %Ctrl @ 2000nM
PIK3CA(E545K) = PIK3CA(E545K) (Homo sapiens, UniProt P42336, E545K); experiment: biochemical; details: read-out: %Ctrl @ 2000nM
PIK3CA(E545K), sequence (P42336 whole entry E545K): as the sequence (P42336 whole entry H1047Y) above, with E545K, Y1047H counted along it

EIF2AK1 = EIF2AK1 (Homo sapiens, UniProt Q9BQI3); experiment: biochemical; details: read-out: %Ctrl @ 2000nM
EIF2AK1, sequence (Q9BQI3 whole entry): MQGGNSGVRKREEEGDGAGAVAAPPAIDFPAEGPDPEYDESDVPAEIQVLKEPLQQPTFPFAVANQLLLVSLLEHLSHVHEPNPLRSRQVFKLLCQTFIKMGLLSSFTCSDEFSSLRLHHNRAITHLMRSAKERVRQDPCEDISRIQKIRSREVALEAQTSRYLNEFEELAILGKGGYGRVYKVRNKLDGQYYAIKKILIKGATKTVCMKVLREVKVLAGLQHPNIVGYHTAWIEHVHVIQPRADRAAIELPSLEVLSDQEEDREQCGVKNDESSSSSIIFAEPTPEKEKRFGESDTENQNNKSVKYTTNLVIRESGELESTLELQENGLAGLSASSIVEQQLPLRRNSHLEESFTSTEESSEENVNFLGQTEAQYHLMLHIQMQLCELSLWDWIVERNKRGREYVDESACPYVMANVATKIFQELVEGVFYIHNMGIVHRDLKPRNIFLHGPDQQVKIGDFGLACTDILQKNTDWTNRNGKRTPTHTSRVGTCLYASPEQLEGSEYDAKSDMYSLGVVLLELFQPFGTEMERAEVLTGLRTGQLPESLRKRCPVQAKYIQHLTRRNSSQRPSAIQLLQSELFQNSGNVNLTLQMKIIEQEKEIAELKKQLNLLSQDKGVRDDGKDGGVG

ERBB2 = ERBB2 (Homo sapiens, UniProt P04626); experiment: biochemical; details: read-out: %Ctrl @ 2000nM
LTK = LTK (Homo sapiens, UniProt P29376); experiment: biochemical; details: read-out: %Ctrl @ 2000nM
KIT(V559D,T670I) = KIT(V559D,T670I) (Homo sapiens, UniProt P10721, T670I/V559D); experiment: biochemical; details: read-out: %Ctrl @ 2000nM
JNK1 = JNK1 (Homo sapiens, UniProt P45983); experiment: biochemical; details: read-out: %Ctrl @ 2000nM
p21 (T145) = details: HEK293 cells; 48 h

CC(C)COC(=O)c1[nH]c2ccc(F)cc2c1-c1cn(CC2CCN(CCNS(=O)(=O)c3ccc(CC(C)C)cc3)CC2)nn1 [AB668, isobutyl 5-fluoro-3-(1-((1-(2-((4-isobutylphenyl)sulfonamido)ethyl)piperidin-4-yl)methyl)-1H-1,2,3-triazol-4-yl)-1H-indole-2-carboxylate]
remaining activity at 2 µM (WNK4): 96% | remaining activity at 2 µM (PKAC-beta): 78% | cell death in various cancer cells [1]: broad effect on cell death | remaining activity at 2 µM (MARK3): 0% | remaining activity at 2 µM [2]: 93% | remaining activity at 2 µM (p38-beta): 74% | remaining activity at 2 µM (BRSK1): 78% | expression of survivin (survivin): reduced the expression of survivin | remaining activity at 2 µM (ROCK1): 88% | remaining activity at 2 µM [3]: 61% | remaining activity at 2 µM (RET(V804M)): 76% | remaining activity at 2 µM [4]: 67% | remaining activity at 2 µM (AXL): 100% | remaining activity at 2 µM [5]: 85% | remaining activity at 2 µM (TEC): 95% | remaining activity at 2 µM (RAF1): 100% | remaining activity at 2 µM (HPK1): 92% | remaining activity at 2 µM (MAP3K1): 91% | remaining activity at 2 µM (EGFR(L861Q)): 79% | remaining activity at 2 µM (PIK3CA(H1047Y)): 100% | remaining activity at 2 µM (MST3): 100% | remaining activity at 2 µM (ADCK4): 80% | remaining activity at 2 µM (TYRO3): 100% | remaining activity at 2 µM (CDC2L5): 98% | remaining activity at 2 µM [6]: 97% | remaining activity at 2 µM (TNIK): 88% | remaining activity at 2 µM (HIPK1): 100% | remaining activity at 2 µM (ERK2): 100% | remaining activity at 2 µM (SIK): 97% | remaining activity at 2 µM [7]: 95% | phosphorylation of S129AKT (AKT (S129)): decreased, in a dose-dependent manner | remaining activity at 2 µM (CDK9): 93% | remaining activity at 2 µM (CIT): 88% | remaining activity at 2 µM (CSNK1E): 66% | remaining activity at 2 µM (MRCKB): 90% | remaining activity at 2 µM (PIK3CA(E545K)): 88% | remaining activity at 2 µM (EIF2AK1): 88% | remaining activity at 2 µM (ERBB2): 100% | remaining activity at 2 µM (LTK): 94% | remaining activity at 2 µM (KIT(V559D,T670I)): 93% | remaining activity at 2 µM (JNK1): 77% | p21 phosphorylation (p21 (T145)): weakly affected
